Measurements published in PMC2944038 (Biochemical pharmacology, 2010).

How the values were obtained:
HEK cells = settings: for cytotoxicity in HEK cells (in words): cytotoxic if cell viability 80% or less, 10 min exposure
MDCK cells = test: WST-1 cytotoxicity study in MDCK cells; type: cell-based; settings: for cytotoxicity in MDCK cells (in words): cytotoxic if cell viability 80% or less, 10 min exposure
[1] = target: T1, excitatory amino acid transporter 4 (EAAT4; SLC1A6) (Homo sapiens, UniProt P48664); test: EAAT4 inhibition: glutamate uptake into EAAT4-HEK cells; type: cell-based; settings: for EAAT4 inhibitor: with consideration of cytotoxicity
T1 sequence (P48664 1-564): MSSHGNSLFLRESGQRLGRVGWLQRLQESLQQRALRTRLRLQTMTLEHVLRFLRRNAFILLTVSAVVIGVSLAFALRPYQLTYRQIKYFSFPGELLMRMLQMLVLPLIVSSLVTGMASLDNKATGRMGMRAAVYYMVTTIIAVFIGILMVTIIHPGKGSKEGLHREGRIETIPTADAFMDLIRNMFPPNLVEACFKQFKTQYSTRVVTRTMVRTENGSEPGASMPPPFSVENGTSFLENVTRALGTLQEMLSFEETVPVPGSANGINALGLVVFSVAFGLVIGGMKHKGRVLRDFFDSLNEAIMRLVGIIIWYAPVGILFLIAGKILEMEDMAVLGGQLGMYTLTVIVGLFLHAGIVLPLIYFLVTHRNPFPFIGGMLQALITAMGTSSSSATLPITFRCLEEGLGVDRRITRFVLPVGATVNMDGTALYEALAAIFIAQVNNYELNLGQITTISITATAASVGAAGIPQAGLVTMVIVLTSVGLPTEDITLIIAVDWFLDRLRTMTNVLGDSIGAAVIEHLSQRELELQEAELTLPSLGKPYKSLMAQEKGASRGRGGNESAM

[2] = target: T2, human apical sodium-dependent bile acid transporter (ASBT; SLC10A2) (Homo sapiens, UniProt Q12908); test: ASBT inhibition: taurocholate uptake into ASBT-MDCK cells; type: cell-based; settings: for ASBT inhibitor: with consideration of cytotoxicity
T2 sequence (Q12908 1-348): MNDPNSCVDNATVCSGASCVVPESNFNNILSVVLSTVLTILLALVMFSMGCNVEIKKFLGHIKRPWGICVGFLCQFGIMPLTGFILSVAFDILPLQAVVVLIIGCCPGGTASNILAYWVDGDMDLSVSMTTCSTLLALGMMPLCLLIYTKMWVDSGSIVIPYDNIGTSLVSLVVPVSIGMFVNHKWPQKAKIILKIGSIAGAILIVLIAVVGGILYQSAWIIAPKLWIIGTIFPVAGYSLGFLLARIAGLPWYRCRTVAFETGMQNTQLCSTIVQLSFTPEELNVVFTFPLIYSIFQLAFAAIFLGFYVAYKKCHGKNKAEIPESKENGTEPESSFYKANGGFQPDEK

[3] = WST-1 cytotoxicity study in MDCK cells; type: cell-based; settings: dog, MDCK cells (ASBT-MDCK or OCTN2-MDCK, not specified)
[4] = target: T3, human organic cation/carnitine transporter (OCTN2; SLC22A5) (Homo sapiens, UniProt O76082); test: OCTN2 inhibition: L-carnitine uptake into OCTN2-MDCK cells; type: cell-based; settings: for OCTN2 inhibitor: with consideration of cytotoxicity
T3 sequence (O76082 1-557): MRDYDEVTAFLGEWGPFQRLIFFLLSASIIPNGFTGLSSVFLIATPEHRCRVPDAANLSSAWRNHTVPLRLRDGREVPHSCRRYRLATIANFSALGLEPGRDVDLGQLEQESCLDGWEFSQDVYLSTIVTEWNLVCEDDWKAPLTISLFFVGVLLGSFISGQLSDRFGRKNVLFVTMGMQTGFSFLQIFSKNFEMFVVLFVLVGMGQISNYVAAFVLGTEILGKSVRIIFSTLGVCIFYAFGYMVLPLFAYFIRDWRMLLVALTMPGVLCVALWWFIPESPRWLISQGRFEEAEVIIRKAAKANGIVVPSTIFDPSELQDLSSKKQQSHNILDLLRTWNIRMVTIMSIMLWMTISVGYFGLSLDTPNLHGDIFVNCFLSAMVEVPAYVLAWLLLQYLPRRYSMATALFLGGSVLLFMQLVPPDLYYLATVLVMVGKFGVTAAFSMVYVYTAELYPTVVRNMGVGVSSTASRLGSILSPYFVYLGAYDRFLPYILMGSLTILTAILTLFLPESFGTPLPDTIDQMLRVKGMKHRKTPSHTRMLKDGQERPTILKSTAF

[5] = target: T2, human apical sodium-dependent bile acid transporter (ASBT; SLC10A2); settings: known inhibitors selected for this study; cited from earlier work
[6] = EAAT4-HEK, drug concentration not given

| SMILES | cytotoxicity in HEK cells (in words) (HEK cells) | cytotoxicity in MDCK cells (in words) (MDCK cells) | EAAT4 inhibitor [1] | ASBT inhibitor [2] | other results |
| --- | --- | --- | --- | --- | --- |
| Clc1ccc(C(Cn2ccnc2)OCc2ccsc2Cl)c(Cl)c1 (stereo not shown) [Tioconazole, tioconazole] | reduced cell viability in HEK cells | not in MDCK cells | non-inhibitors of EAAT4 | – | – |
| COC(=O)C1=C(C)NC(C)=C(C(=O)OCC(C)C)C1c1ccccc1[N+](=O)[O-] (stereo not shown) [Nisoldipine, nisoldipine] | – | cytotoxic to MDCK cells | – | only inhibited ASBT | viability at 10 min, 100 μM [3]: 56%; OCTN2 inhibitor [4]: not classed as OCTN2 inhibitors |
| CCOC(=O)C1=C(COCCN)NC(C)=C(C(=O)OC)C1c1ccccc1Cl (stereo not shown) [Amlodipine, amlodipine] | – | cytotoxic to MDCK cells | – | – | cells non-viable (MDCK cells; MDCK cells): 60%; viability at 10 min, 100 μM [3]: 101 ± 6%; viability at 10 min, 500 μM [3]: 39.3% |
| CN(C)CCC(c1ccc(Cl)cc1)c1ccccn1 (stereo not shown) [Chlorpheniramine, chlorpheniramine] | – | – | – | only inhibited OCTN2 | – |
| COC(=O)C1=C(C)NC(C)=C(C(=O)OCCN(C)Cc2ccccc2)C1c1cccc([N+](=O)[O-])c1 (stereo not shown) [Nicardipine, nicardipine] | – | cytotoxic to MDCK cells | – | only inhibited ASBT | – |
| CC(C)n1c(/C=C/C(O)CC(O)CC(=O)O)c(-c2ccc(F)cc2)c2ccccc21 (stereo not shown) [Fluvastatin, fluvastatin] | without cytotoxicity | – | inhibited all three transporters | – | taurocholate uptake [2]: 4.51%; ASBT inhibition ([2]; ASBT-MDCK, drug concentration not given): over 90%; viability at 10 min [3]: 107%; EAAT4 inhibition [1, 6]: ~35%; glutamate uptake [1, 6]: about 60%; ASBT inhibition, previously reported [5]: competitively inhibits ASBT; OCTN2 inhibition (reduction of L-carnitine uptake) ([4]; OCTN2-MDCK, drug concentration not given): ~35% |
| COc1ccc([C@@H]2Sc3ccccc3N(CCN(C)C)C(=O)[C@@H]2OC(C)=O)cc1 [Diltiazem, diltiazem] | – | – | – | – | ASBT inhibition, previously reported [5]: known to inhibit both transporters |
| COc1ccc2c(c1)c(CC(=O)O)c(C)n2C(=O)c1ccc(Cl)cc1 [Indomethacin, indomethacin] | – | – | – | only inhibited ASBT | OCTN2 inhibitor [4]: only inhibited ASBT |
| CCC(C)(C)C(=O)O[C@H]1C[C@@H](C)C=C2C=C[C@H](C)[C@H](CC[C@@H]3C[C@@H](O)CC(=O)O3)[C@H]21 [Simvastatin, simvastatin] | – | – | did not appreciably inhibit EAAT4 | – | – |
| CSc1ccc2c(c1)N(CCC1CCCCN1C)c1ccccc1S2 (stereo not shown) [Thioridazine, thioridazine] | reduced cell viability in HEK cells | not cytotoxic in MDCK cells | non-inhibitors of EAAT4 | – | viable cells / cell viability (HEK cells; HEK cells, 10 min, drug concentration not given): 73.5%; ASBT inhibition, previously reported [5]: known to inhibit both transporters |
| CN(C)CCCN1c2ccccc2Sc2ccc(Cl)cc21 [chlorpromazine] | – | not cytotoxic in MDCK cells | – | – | – |
| CC[C@H](C)C(=O)O[C@H]1C[C@@H](C)C=C2C=C[C@H](C)[C@H](CC[C@@H]3C[C@@H](O)CC(=O)O3)[C@H]21 [Lovastatin, lovastatin] | – | – | did not appreciably inhibit EAAT4 | – | – |
| CN1CCN(C2=Nc3cc(Cl)ccc3Nc3ccccc32)CC1 [Clozapine, clozapine] | reduced cell viability in HEK cells | not cytotoxic in MDCK cells | non-inhibitors of EAAT4 | – | – |
